Source: patent US11707462B2, “Checkpoint kinase 1 (CHK1) inhibitors and uses thereof” (Boundless Bio, Inc., priority 2021, dated 2023)

What follows are compounds tested against T1, Full-length human Chk1 protein (Homo sapiens, UniProt O14757) (assay: Kinase HTRF biochemical assay (HTRF KinEASE), Chk1 enzyme activity). Conditions: full-length human Chk1, ATP 1 mM, 60 minutes at room temperature.
T1 construct: purchased Carna Biosciences, Inc. 02-117
T1 sequence (O14757 1-476): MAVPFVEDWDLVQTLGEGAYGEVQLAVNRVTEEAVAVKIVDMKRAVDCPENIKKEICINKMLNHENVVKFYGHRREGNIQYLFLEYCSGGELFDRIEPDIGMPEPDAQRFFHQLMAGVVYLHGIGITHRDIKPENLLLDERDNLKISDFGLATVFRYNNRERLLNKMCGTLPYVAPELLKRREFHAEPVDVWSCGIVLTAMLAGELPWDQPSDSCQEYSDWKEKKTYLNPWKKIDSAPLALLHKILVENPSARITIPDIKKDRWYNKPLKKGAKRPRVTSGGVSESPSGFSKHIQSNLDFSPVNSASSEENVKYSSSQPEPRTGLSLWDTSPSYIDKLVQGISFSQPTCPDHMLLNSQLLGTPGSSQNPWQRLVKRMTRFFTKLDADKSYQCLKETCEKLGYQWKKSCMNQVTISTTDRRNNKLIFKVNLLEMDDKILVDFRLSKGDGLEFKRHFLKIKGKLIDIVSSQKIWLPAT
Experimental: Example A: Kinase HTRF Biochemical Assay
Chk1 enzyme activity was measured using an HTRF KinEASE assay (Cisbio, catalog no. 62ST1PEC). Full-length human Chk1 protein (GenBank accession number NP_001265.1) was obtained from Carna Biosciences, Inc. (Kobe, Japan, catalog no. 02-117). The enzyme reaction was carried out in assay buffer containing (final concentrations): Chk1 enzyme (0.012 ng/μL), MgCl2 (5 mM) and DTT (1 mM). To determine compound dose response, DMSO stock solutions were serially diluted in a 10-point concentration series in duplicate. Compound solution (50 nL) was added to 384-well assay plates (Greiner, catalog no. 784075). To each well containing compound solution was added assay buffer solution (5 μL). Plates were centrifuged at 1000 rpm for 1 minute, then incubated at room temperature for 10 minutes. The reaction was started by addition of substrate buffer (5 μL/well) containing (final concentrations): STK substrate 1-biotin (120 nM) and ATP (1 mM). Assay plates were centrifuged at 1000 rpm for 1 minute, then incubated at room temperature for 60 minutes. The reaction was stopped by addition of detection buffer (Cisbio, 10 μL) containing (final concentrations): STK antibody-cryptate (0.25 nM) and streptavidin-XL665 (7.5 nM). Plates were centrifuged at 1000 rpm for 1 minute, then incubated at 25° C. for 2 hours. HTRF signal was read on an EnVision multimode plate reader […] in HTRF mode. Data were fit to dose-response curves using XLfit (IDBS, Surrey, UK) or Prism (GraphPad Software, La Jolla, Calif., US) to calculate IC50 values for each compound tested.

SMILES	IC50 [nM]
COc1cccc(O[C@@H]2CCC[C@H](N)C2)c1-c1cc(Nc2cnc(C#N)cn2)n[nH]1 (relative stereo) [Example 1-66]	> 1000
COc1cccc(OC[C@H]2C[C@@H](N)C2)c1-c1cc(Nc2cnc(C#N)cn2)n[nH]1 [Example 1-2, 5-((5-(2-(((1s,3s)-3-aminocyclobutyl)methoxy)-6-methoxyphenyl)-1H-pyrazol-3-yl)amino)pyrazine-2-carbonitrile]	> 1000
COc1cccc(OC[C@H]2C[C@H](N)C2)c1-c1cc(Nc2cnc(C#N)cn2)n[nH]1 [Example 1-3]	> 1000
COc1cccc(O[C@H]2CC[C@H](N)C2)c1-c1cc(Nc2cnc(C#N)cn2)n[nH]1 [Example 1-6, 5-((5-(2-(((1S,3S)-3-aminocyclopentyl)oxy)-6-methoxyphenyl)-1H-pyrazol-3-yl)amino)pyrazine-2-carbonitrile]	> 1000
CC(C)Oc1cccc(O[C@H]2C[C@H](N)C2)c1-c1cc(Nc2cnc(C#N)cn2)n[nH]1 [Example 1-15, 5-((5-(2-((1r,3r)-3-aminocyclobutoxy)-6-isopropoxyphenyl)-1H-pyrazol-3-yl)amino)pyrazine-2-carbonitrile]	100 to 500
CC(C)Oc1cccc(O[C@H]2CC[C@H](N)CC2)c1-c1cc(Nc2cnc(C#N)cn2)n[nH]1 [Example 1-18, 5-((5-(2-(((1r,4r)-4-aminocyclohexyl)oxy)-6-isopropoxyphenyl)-1H-pyrazol-3-yl)amino)pyrazine-2-carbonitrile]	100 to 500
CC(C)Oc1cccc(O[C@@H]2CC[C@H](N)C2)c1-c1cc(Nc2cnc(C#N)cn2)n[nH]1 [Example 1-24, 5-((5-(2-(((1R,3S)-3-aminocyclopentyl)oxy)-6-isopropoxyphenyl)-1H-pyrazol-3-yl)amino)pyrazine-2-carbonitrile]	> 1000
N#Cc1cnc(Nc2cc(-c3c(OCC(F)(F)F)cccc3O[C@@H]3CC[C@H](N)C3)[nH]n2)cn1 [Example 1-25, 5-((5-(2-(((1R,3S)-3-aminocyclopentyl)oxy)-6-(2,2,2-trifluoroethoxy)phenyl)-1-pyrazol-3-yl)amino)pyrazine-2-carbonitrile]	500 to 1000
COCc1cccc(O[C@@H]2CC[C@H](N)C2)c1-c1cc(Nc2cnc(C#N)cn2)n[nH]1 [Example 1-30, 5-((5-(2-(((1R,3S)-3-aminocyclopentyl)oxy)-6-(methoxymethyl)phenyl)-1H-pyrazol-3-yl)amino)pyrazine-2-carbonitrile]	> 1000
N#Cc1cnc(Nc2cc(-c3c(OCC4CC4)cccc3O[C@H]3CC[C@H](N)CC3)[nH]n2)cn1 [Example 1-31, 5-((5-(2-(((1r,4r)-4-aminocyclohexyl)oxy)-6-(cyclopropylmethoxy)phenyl)-1H-pyrazol-3-yl)amino)pyrazine-2-carbonitrile]	100 to 500
N#Cc1cnc(Nc2cc(-c3c(OCC4CC4)cccc3O[C@@H]3CC[C@H](N)C3)[nH]n2)cn1 [Example 1-33, 5-((5-(2-(((1R,3S)-3-aminocyclopentyl)oxy)-6-(cyclopropylmethoxy)phenyl)-1H-pyrazol-3-yl)amino)pyrazine-2-carbonitrile]	100 to 500
N#Cc1cnc(Nc2cc(-c3c(OC4CCC4)cccc3O[C@H]3CC[C@H](N)CC3)[nH]n2)cn1 [Example 1-34, 5-((5-(2-(((1r,4r)-4-aminocyclohexyl)oxy)-6-cyclobutoxyphenyl)-1H-pyrazol-3-yl)amino)pyrazine-2-carbonitrile]	100 to 500
N#Cc1cnc(Nc2cc(-c3c(OC4CCC4)cccc3O[C@H]3C[C@H](N)C3)[nH]n2)cn1 [Example 1-35, 5-((5-(2-((1r,3r)-3-aminocyclobutoxy)-6-cyclobutoxyphenyl)-1H-pyrazol-3-yl)amino)pyrazine-2-carbonitrile]	100 to 500
N#Cc1cnc(Nc2cc(-c3c(OC4CCC4)cccc3O[C@@H]3CC[C@H](N)C3)[nH]n2)cn1 [Example 1-36, 5-((5-(2-(((1R,3S)-3-aminocyclopentyl)oxy)-6-cyclobutoxyphenyl)-1H-pyrazol-3-yl)amino)pyrazine-2-carbonitrile]	100 to 500
N#Cc1cnc(Nc2cc(-c3ccccc3OC3CC4(CC(N)C4)C3)[nH]n2)cn1 (stereo not shown) [Example 1-54, 5-((5-(2-((6-aminospiro[3.3]heptan-2-yl)oxy)phenyl)-1H-pyrazol-3-yl)amino)pyrazine-2-carbonitrile]	10 to 100
COc1cccc(O[C@@H]2CCC[C@@H](N)C2)c1-c1cc(Nc2cnc(C#N)cn2)n[nH]1 [Example 1-64, 5-((5-(2-(((1R,3R)-3-aminocyclohexyl)oxy)-6-methoxyphenyl)-1H-pyrazol-3-yl)amino)pyrazine-2-carbonitrile]	> 1000
COc1cccc(O[C@H]2CCC[C@H](N)C2)c1-c1cc(Nc2cnc(C#N)cn2)n[nH]1 [Example 1-65, 5-[[5-[2-[(1S,3S)-3-aminocyclohexoxy]-6-methoxy-phenyl]-1H-pyrazol-3-yl]amino]pyrazine-2-carbonitrile]	> 1000
COc1cccc(O[C@H]2CC[C@H]2N)c1-c1cc(Nc2cnc(C#N)cn2)n[nH]1 [Example 3-3, 5-((5-(2-((1S,2R)-2-aminocyclobutoxy)-6-methoxyphenyl)-1H-pyrazol-3-yl)amino)pyrazine-2-carbonitrile]	100 to 500
COc1cccc(O[C@@H]2CC[C@@H]2N)c1-c1cc(Nc2cnc(C#N)cn2)n[nH]1 [Example 3-4, 5-((5-(2-((1R,2S)-2-aminocyclobutoxy)-6-methoxyphenyl)-1H-pyrazol-3-yl)amino)pyrazine-2-carbonitrile]	10 to 100
N#Cc1cnc(Nc2cc(-c3c(F)cccc3O[C@H]3CC[C@@H]3N)[nH]n2)cn1 [Example 3-31, 5-((5-(2-((1S,2S)-2-aminocyclobutoxy)-6-fluorophenyl)-1H-pyrazol-3-yl)amino)pyrazine-2-carbonitrile]	100 to 500
N#Cc1cnc(Nc2cc(-c3c(F)cccc3O[C@@H]3CC[C@@H]3N)[nH]n2)cn1 [Example 3-32, 5-((5-(2-((1R,2S)-2-aminocyclobutoxy)-6-fluorophenyl)-1H-pyrazol-3-yl)amino)pyrazine-2-carbonitrile]	10 to 100
N#Cc1cnc(Nc2cc(-c3c(F)cccc3O[C@H]3CC[C@H]3N)[nH]n2)cn1 [Example 3-34, 5-((5-(2-((1S,2R)-2-aminocyclobutoxy)-6-fluorophenyl)-1H-pyrazol-3-yl)amino)pyrazine-2-carbonitrile]	> 1000

Continued, values first:

IC50 [nM]	SMILES
100 to 500	COc1cccc(O[C@@H]2CCCC[C@@H](N)C2)c1-c1cc(Nc2cnc(C#N)cn2)n[nH]1 [Example 3-6, 5-((5-(2-(((1R,3R)-3-aminocycloheptyl)oxy)-6-methoxyphenyl)-1H-pyrazol-3-yl)amino)pyrazine-2-carbonitrile]
10 to 100	COc1cccc(O[C@H]2CCCC[C@@H](N)C2)c1-c1cc(Nc2cnc(C#N)cn2)n[nH]1 [Example 3-9, 5-((5-(2-(((1S,3R)-3-aminocycloheptyl)oxy)-6-methoxyphenyl)-1H-pyrazol-3-yl)amino)pyrazine-2-carbonitrile]
10 to 100	Cc1cc(-c2cc(Nc3cnc(C#N)cn3)n[nH]2)c(O[C@@H]2CC[C@H](N)C2)cc1F [Example 3-17, 5-((5-(2-(((1R,3S)-3-aminocyclopentyl)oxy)-4-fluoro-5-methylphenyl)-1H-pyrazol-3-yl)amino)pyrazine-2-carbonitrile]
> 1000	CN[C@@H]1CC[C@@H](Oc2ccc(Cl)c(F)c2-c2cc(Nc3cnc(C(N)=O)cn3)n[nH]2)C1 [Example 3-23, 5-((5-(3-chloro-2-fluoro-6-(((1R,3R)-3-(methylamino)cyclopentyl)oxy)phenyl)-1H-pyrazol-3-yl)amino)pyrazine-2-carboxamide]
≤ 10	N#Cc1cnc(Nc2cc(-c3c(F)cccc3O[C@H]3CCCC[C@@H](N)C3)[nH]n2)cn1 [Example 3-36, 5-((5-(2-(((1S,3R)-3-aminocycloheptyl)oxy)-6-fluorophenyl)-1H-pyrazol-3-yl)amino)pyrazine-2-carbonitrile]
10 to 100	N#Cc1cnc(Nc2cc(-c3c(F)cccc3O[C@@H]3CCCC[C@@H](N)C3)[nH]n2)cn1 [Example 3-37, 5-((5-(2-(((1R,3R)-3-aminocycloheptyl)oxy)-6-fluorophenyl)-1H-pyrazol-3-yl)amino)pyrazine-2-carbonitrile]
